Test results: patent publication US9023789B2, “Amylin analogs and pharmaceutical compositions thereof” (Novo Nordisk A/S, priority 2012, dated 2015)
Read-outs that look alike come from different tables or passages of the source. Numbered stars: 1 amine (or outer) side, 2 acyl side, 3 side chain; on linkers, the order of the positions; unused ones are H or OH. Bridge positions count the residues as written; N and C are the ends. Side chains are listed from the residue outwards. Peptide text beside a SMILES is read from it. * marks the point of attachment. C20 diacid = O=C(O)CCCCCCCCCCCCCCCCCCC(=O)*; γGlu = O=C(O)[C@H](CCC(=O)[*:2])N[*:1]; AEEA = NCCOCCOCC(=O)O

Assays:
[1] = molecular target: T1, human amylin 3(a) receptor (human calcitonin receptor + RAMP-3) in BHK570 cells (Homo sapiens, UniProt O60896+P30988); assay: ASSAY (II)a functional assay, human amylin receptor (CRE luciferase); format: cell-based
T1 construct: expressed in transfected cells
How it was run: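 BHK CRE-luc cells, calcitonin (a) receptor ± RAMP-3 (amylin 3(a)); overnight seeding, 37° C/5% CO2. 3 h ligand exposure, DMEM/10% FBS/10 mM Hepes pH 7.4. LucLite 30 min RT; luminescence (SPC).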

[2] = ASSAY (IV) determination of solubility; format: physicochemical
How it was run: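 Polypeptide stock in water ([…]) was mixed 1:1 with 100 mM buffers: glycylglycine at pH 3.0, 4.0, 5.0 and bistrispropane at pH 6.0, 6.5, 7.0, 7.5, 8.0. After 18 hours at room temperature, samples were centrifuged and polypeptide concentration measured by UPLC.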

[3] = molecular target: T2, human amylin receptor (membranes from Amylin 3(a)/CRE-luc cells) (Homo sapiens, UniProt O60896+P30988); assay: ASSAY (V) binding to the human amylin receptor (SPA, 125I-rat amylin);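 further: competition binding of cell membranes (35 ng/µL) mixed with SPA beads in 384-well plates at 40 µL total volume, read by scintillation counting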
T2 construct: expressed in transfected cells
T2 sequence (P30988 25-474): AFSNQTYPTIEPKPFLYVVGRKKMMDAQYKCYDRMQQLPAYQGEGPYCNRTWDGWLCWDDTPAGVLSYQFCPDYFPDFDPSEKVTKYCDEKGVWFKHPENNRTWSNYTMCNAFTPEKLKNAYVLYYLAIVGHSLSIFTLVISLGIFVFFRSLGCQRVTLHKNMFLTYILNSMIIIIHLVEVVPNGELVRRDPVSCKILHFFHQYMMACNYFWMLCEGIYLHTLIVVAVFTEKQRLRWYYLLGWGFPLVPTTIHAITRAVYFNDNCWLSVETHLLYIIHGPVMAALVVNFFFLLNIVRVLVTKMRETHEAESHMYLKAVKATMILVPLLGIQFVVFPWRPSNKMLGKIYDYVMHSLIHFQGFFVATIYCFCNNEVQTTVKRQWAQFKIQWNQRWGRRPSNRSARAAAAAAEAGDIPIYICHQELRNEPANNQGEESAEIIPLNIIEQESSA
T2 sequence (O60896 24-148 partner): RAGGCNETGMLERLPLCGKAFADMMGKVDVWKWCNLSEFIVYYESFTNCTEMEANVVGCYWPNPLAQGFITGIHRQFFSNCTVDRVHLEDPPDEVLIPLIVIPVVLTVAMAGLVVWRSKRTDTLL

[4] = molecular target: T3, rat amylin receptor (rat calcitonin receptor + rat RAMP 3) (Rattus norvegicus, UniProt P32214+Q9JJ73); assay: ASSAY (VI) binding to the rat amylin receptor; conditions: for IC50: binding to rat amylin receptor, read-out: rAmylin-R bind IC50
T3 construct: expressed in transfected cells; host or cells: BHK tk'ts 13 (transient, FuGENE 6), membranes
T3 sequence (P32214 25-479 isoform P32214-2 limits assumed): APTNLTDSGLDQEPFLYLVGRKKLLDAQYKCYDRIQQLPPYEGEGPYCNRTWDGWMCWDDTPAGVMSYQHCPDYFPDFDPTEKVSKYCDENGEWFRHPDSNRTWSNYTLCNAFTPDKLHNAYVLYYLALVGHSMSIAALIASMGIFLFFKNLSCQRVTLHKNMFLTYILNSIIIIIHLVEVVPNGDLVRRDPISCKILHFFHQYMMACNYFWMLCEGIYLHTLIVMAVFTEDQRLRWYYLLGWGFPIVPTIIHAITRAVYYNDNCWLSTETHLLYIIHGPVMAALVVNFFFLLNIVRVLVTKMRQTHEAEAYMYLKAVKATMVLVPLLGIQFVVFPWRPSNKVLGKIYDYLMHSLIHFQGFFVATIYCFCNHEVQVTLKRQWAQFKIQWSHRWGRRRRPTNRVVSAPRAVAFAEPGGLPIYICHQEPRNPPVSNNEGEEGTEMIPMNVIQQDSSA
T3 sequence (Q9JJ73 23-147 partner): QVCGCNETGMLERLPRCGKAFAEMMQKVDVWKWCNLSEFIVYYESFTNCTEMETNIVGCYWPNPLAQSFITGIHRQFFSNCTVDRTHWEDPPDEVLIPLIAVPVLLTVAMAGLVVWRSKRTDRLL
How it was run: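 This assay measured binding to the rat amylin receptor. BHK tk′ts 13 cells were transiently transfected with the rat calcitonin receptor using FuGENE® 6 (Roche), following the manufacturer's recommendations. About 48 hours after transfection, the cells were harvested and membranes were prepared from them for the binding determination.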

rat calcitonin receptor = molecular target: T4, rat calcitonin receptor (Rattus norvegicus, UniProt P32214); assay: ASSAY (VIII) binding to the rat calcitonin receptor; conditions: Table 7, read-out: rCTR bind IC50
T4 construct: expressed in transfected cells; host or cells: BHK tk'ts 13 (transient, FuGENE 6), membranes
T4 sequence (P32214 25-479 isoform P32214-2 limits assumed): T3 sequence (P32214 25-479 isoform P32214-2 limits assumed)
How it was run: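 Transfect BHK tk′ts 13 cells transiently with rat calcitonin receptor, culture in DMEM containing 10% FBS, collect cells about 48 hours later, then prepare membranes.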

[5] = hCTR funct. EC50 divided by hAmylin-R funct. EC50
[6] = human functional selectivity: hCTR funct. EC50 / hAmylin-R funct. EC50
[7] = bistrispropane buffer, pH 6.5, read-out: Solubility pH 6.5 Concentration
[8] = bistrispropane buffer, pH 7.5, read-out: Solubility pH 7.5 Concentration
[9] = bistrispropane buffer, pH 6.0, read-out: Solubility pH 6.0 Concentration
[10] = bistrispropane buffer, pH 7.0, read-out: Solubility pH 7.0 Concentration
[11] = bistrispropane buffer, pH 8.0, read-out: Solubility pH 8.0 Concentration
[12] = glycylglycine buffer, pH 3.0, read-out: Solubility pH 3.0 Concentration
[13] = glycylglycine buffer, pH 4.0, read-out: Solubility pH 4.0 Concentration
[14] = glycylglycine buffer, pH 5.0, read-out: Solubility pH 5.0 Concentration
[15] = Table 5, selectivity, hCTR bind IC50 / hAmylin-R bind IC50
[16] = Table 5a, selectivity, hCTR bind IC50 / hAmylin-R bind IC50
[17] = Table 5b, selectivity, hCTR bind IC50 / hAmylin-R bind IC50
[18] = Table 5c, selectivity, hCTR bind IC50 / hAmylin-R bind IC50
[19] = Table 7, human binding selectivity, included for comparison
[20] = Table 7a (preferred compounds), human binding selectivity, included for comparison
[21] = ratio of human calcitonin receptor binding IC50 to human amylin receptor binding IC50
[22] = Table 7, rat binding selectivity, rCTR IC50 / rAmylin-R IC50
[23] = Table 7a (preferred compounds), rat binding selectivity, rCTR IC50 / rAmylin-R IC50
[24] = ratio of rCTR bind IC50 to rAmylin-R bind IC50
[25] = hCTR funct. EC50 over hAmylin-R funct. EC50

Ratio hCT/hAmylin funct. [1, 5] | Ratio hCT/hAmylin funct. [1, 6] | solubility at 18 h [2, 7] [µM] | solubility at 18 h [2, 8] [µM] | solubility at 18 h [2, 9] [µM] | solubility at 18 h [2, 10] [µM] | solubility at 18 h [2, 11] [µM] | solubility at 18 h [2, 12] [µM] | solubility at 18 h [2, 13] [µM] | solubility at 18 h [2, 14] [µM] | Ratio hCT/hAmylin binding [3, 15] | Ratio hCT/hAmylin binding [3, 16] | Ratio hCT/hAmylin binding [3, 17] | Ratio hCT/hAmylin binding [3, 18] | Ratio hCT/hAmylin binding [3, 19] | Ratio hCT/hAmylin binding [3, 20] | Ratio hCT/hAmylin binding [3, 21] | IC50 ([4]; Table 7) [nM] | Ratio rCT/rAmylin binding [4, 22] | Ratio rCT/rAmylin binding [4, 23] | other results | Compound
9.4 | 9.4 | ≥ 200 | ≥ 200 | ≥ 200 | ≥ 200 | ≥ 200 | ≥ 200 | ≥ 200 | ≥ 200 | 32.0 | 32.0 | 32.0 | 32.0 | 32.0 | 32.0 | 32.0 | 0.276 | 162.4 | 162.4 | Ratio rCT/rAmylin binding [4, 24]: 162.4; IC50 (rat calcitonin receptor): 44.8 nM | CC[C@H](C)[C@H](NC(=O)[C@H](C)NC(=O)CNC(=O)[C@H](Cc1ccccc1)NC(=O)[C@H](CC(N)=O)NC(=O)[C@@H]1CCCN1C(=O)[C@H](CO)NC(=O)[C@H](CO)NC(=O)[C@H](Cc1c[nH]cn1)NC(=O)[C@H](CCCNC(=N)N)NC(=O)[C@H](CC(C)C)NC(=O)[C@H](Cc1ccccc1)NC(=O)CNC(=O)[C@H](C)NC(=O)[C@H](CC(C)C)NC(=O)[C@H](CCCNC(=N)N)NC(=O)[C@H](CCC(N)=O)NC(=O)[C@@H](NC(=O)[C@H](C)NC(=O)[C@@H]1CSSC[C@H](NC(=O)[C@@H](N)CCCCNC(=O)COCCOCCNC(=O)CC[C@H](NC(=O)CCCCCCCCCCCCCCCCCCC(=O)O)C(=O)O)C(=O)N[C@@H](CC(N)=O)C(=O)N[C@@H]([C@@H](C)O)C(=O)N[C@@H](C)C(=O)N[C@@H]([C@@H](C)O)C(=O)N1)[C@@H](C)O)C(=O)N1CCC[C@H]1C(=O)N[C@@H](CO)C(=O)N[C@@H](CO)C(=O)N[C@H](C(=O)N1CCC[C@H]1C(=O)N[C@H](C(=O)NCC(=O)N[C@@H](CO)C(=O)N[C@@H](CC(N)=O)C(=O)N[C@H](C(=O)N[C@@H](Cc1ccc(O)cc1)C(N)=O)[C@@H](C)O)C(C)C)[C@@H](C)O [Example 71] (H-K([AEEA-γGlu-C20 diacid])CNTATCATQRLAGFLRHSSPNFGAIPSSTPVGSNTY-NH2; disulfide 2-7)
25.8 | 25.8 | ≥ 200 | ≥ 200 | ≥ 200 | ≥ 200 | ≥ 200 | ≥ 200 | ≥ 200 | ≥ 200 | 60.7 | 60.7 | 60.7 | 60.7 | 60.7 | 60.7 | 60.7 | 1.3 | 69.9 | 69.9 | Ratio hCT/hAmylin funct. [1, 25]: 25.8; EC50 ([1]; human amylin receptor functional potency, assay (II), read-out: hAmylin-R funct. EC50): 0.316 nM; IC50 ([3]; Table 4, read-out: hAmylin-R bind IC50): 0.602 nM; Ratio rCT/rAmylin binding [4, 24]: 69.9; IC50 (rat calcitonin receptor): 90.6 nM | CC[C@H](C)[C@H](NC(=O)[C@H](C)NC(=O)CNC(=O)[C@H](Cc1ccccc1)NC(=O)[C@H](CC(N)=O)NC(=O)[C@@H]1CCCN1C(=O)[C@H](CO)NC(=O)[C@H](CO)NC(=O)[C@H](Cc1c[nH]cn1)NC(=O)[C@H](CCCNC(=N)N)NC(=O)[C@H](CC(C)C)NC(=O)[C@H](Cc1ccccc1)NC(=O)[C@H](CC(N)=O)NC(=O)[C@H](C)NC(=O)[C@H](CC(C)C)NC(=O)[C@H](CCCNC(=N)N)NC(=O)[C@H](CCC(N)=O)NC(=O)[C@@H](NC(=O)[C@H](C)NC(=O)[C@@H]1CSSC[C@H](NC(=O)[C@@H](N)CCCCNC(=O)COCCOCCNC(=O)CC[C@H](NC(=O)CCCCCCCCCCCCCCCCCCC(=O)O)C(=O)O)C(=O)N[C@@H](CC(N)=O)C(=O)N[C@@H]([C@@H](C)O)C(=O)N[C@@H](C)C(=O)N[C@@H]([C@@H](C)O)C(=O)N1)[C@@H](C)O)C(=O)N1CCC[C@H]1C(=O)N[C@@H](CO)C(=O)N[C@@H](CO)C(=O)N[C@H](C(=O)N[C@@H](CC(N)=O)C(=O)N[C@H](C(=O)NCC(=O)N[C@@H](CCCNC(=N)N)C(=O)N[C@@H](CC(N)=O)C(=O)N[C@H](C(=O)N[C@@H](Cc1ccc(O)cc1)C(N)=O)[C@@H](C)O)C(C)C)[C@@H](C)O [Example 78] (H-K([AEEA-γGlu-C20 diacid])CNTATCATQRLANFLRHSSPNFGAIPSSTNVGRNTY-NH2; disulfide 2-7 (inferred))
21.0 | 21.0 | ≥ 200 | ≥ 200 | ≥ 200 | ≥ 200 | ≥ 200 | ≥ 200 | ≥ 200 | ≥ 200 | 79.6 | 79.6 | 79.6 | 79.6 | 79.6 | 79.6 | 79.6 | 0.529 | 117.5 | 117.5 | Ratio hCT/hAmylin funct. [1, 25]: 21.0; Ratio rCT/rAmylin binding [4, 24]: 117.5; IC50 (rat calcitonin receptor): 62.2 nM | CC[C@H](C)[C@H](NC(=O)[C@H](C)NC(=O)CNC(=O)[C@H](Cc1ccccc1)NC(=O)[C@H](CC(N)=O)NC(=O)[C@@H]1CCCN1C(=O)[C@H](CO)NC(=O)[C@H](CO)NC(=O)[C@H](Cc1c[nH]cn1)NC(=O)[C@H](CCCNC(=N)N)NC(=O)[C@H](CC(C)C)NC(=O)[C@H](Cc1ccccc1)NC(=O)[C@H](CC(N)=O)NC(=O)[C@H](C)NC(=O)[C@H](CC(C)C)NC(=O)[C@H](CCCNC(=N)N)NC(=O)[C@H](CCC(N)=O)NC(=O)[C@@H](NC(=O)[C@H](C)NC(=O)[C@@H]1CSSC[C@H](NC(=O)[C@@H](N)CCCCNC(=O)COCCOCCNC(=O)COCCOCCNC(=O)CC[C@H](NC(=O)CCCCCCCCCCCCCCCCCCC(=O)O)C(=O)O)C(=O)N[C@@H](CC(N)=O)C(=O)N[C@@H]([C@@H](C)O)C(=O)N[C@@H](C)C(=O)N[C@@H]([C@@H](C)O)C(=O)N1)[C@@H](C)O)C(=O)N1CCC[C@H]1C(=O)N[C@@H](CO)C(=O)N[C@@H](CO)C(=O)N[C@H](C(=O)N1CCC[C@H]1C(=O)N[C@H](C(=O)NCC(=O)N[C@@H](CO)C(=O)N[C@@H](CC(N)=O)C(=O)N[C@H](C(=O)N[C@@H](Cc1ccc(O)cc1)C(N)=O)[C@@H](C)O)C(C)C)[C@@H](C)O [Example 96]
